# Source: the METLIN SMRT retention time set (Domingo-Almenara et al. 2019)
# Experiment: gradient 5% acetonitrile 3 min, to 50% in 2 min, to 85% in 15 min, held 3 min, 100 µL/min
# Conditions: column: Zorbax Extend-C18 2.1 x 50 mm; eluents: water / acetonitrile, 0.1% formic acid
# Summary of the method: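 A Zorbax Extend-C18 column (2.1 × 50 mm, 1.8 μm) run at 100 μL/min with water and acetonitrile, both containing 0.1% formic acid, separated mixtures of ~100 pure standards. The HPLC was coupled to a quadrupole time-of-flight mass spectrometer operated in positive and negative ionization mode, with dead and dwell volumes of 40 μL and 900 μL. Each retention time was taken from a computationally picked adduct peak that was then manually inspected.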
row,RP-LC retention time [s],SMILES
1,743,O=C(Nc1ccc(F)cc1)c1csc(-c2ccc(N3CCCC3)nc2)n1
2,667,COc1ccc(CNC(=O)Cn2ncc3c(c2=O)N(C2CC2)C(=O)CS3)cc1
3,533,Cc1nc(-c2ccncc2)nc2c1CCC(=O)N2CCN1CCCC1
4,969,COc1ccc(N2CC(c3noc(-c4cc(F)cc(F)c4)n3)CC2=O)cc1 (stereo not given)
5,650,Cc1noc(CNC(=O)C2CCN(C(=O)c3csc(-c4ccccc4)n3)CC2)n1
6,932,Cc1ccc(NC(=O)N2CCC(C(C)C(=O)Nc3ccc(C)c(C)c3)CC2)cc1 (stereo not given)
7,601,Cc1nn(-c2ccccc2)c2c1nc(CCC(=O)N1CCN(c3ccccn3)CC1)c(=O)n2C
8,996,CS(=O)(=O)N1CCC(C(=O)Nc2cccc(Br)c2)Oc2ccccc21 (stereo not given)
9,652,COc1ccc(S(=O)(=O)N2CCC(C(=O)N[C@@H](C)C(=O)O)CC2)cc1
10,772,CCC(=O)Nc1ccc(SCC(=O)Nc2ccc(F)c(Cl)c2)nn1
11,896,Cc1nc(N2CCOCC2)c2c(C(=O)Nc3ccc(F)cc3Cl)c(C)oc2n1
12,1030,O=C(Cc1ccc(Cl)cc1)N1CCc2cc(-c3ccno3)ccc21
13,767,Cc1ccc(C)c(NC(=O)C2CCN(S(=O)(=O)c3cn(C(C)C)cn3)CC2)c1
14,594,Cc1cc(C)c(C(=O)N2CCC(CC(=O)NCCCN3CCCCCC3)CC2)[nH]1
15,1080,Cc1nc(C2(C)CCN(S(=O)(=O)c3ccc(C(C)(C)C)cc3)CC2)no1
16,855,CC(C)OCCCNC(=O)c1cc2n(n1)CCCN(Cc1ccc(Cl)cc1)C2=O
17,1440,O=C(c1cc2ccccc2[nH]1)N1CCC(c2noc(C3CC3)n2)C1 (stereo not given)
18,726,O=C(NCc1ccco1)c1nnn(-c2ccc(F)cc2)c1-c1ccncc1
19,657,O=C(c1csc(N2CCCC2)n1)N1CCCC1
20,797,CC(NC(=O)CN1C(=O)CCn2nc(-c3cn(C)c4ccccc34)cc21)c1ccc2c(c1)OCCO2 (stereo not given)
21,1020,O=C(c1cccs1)N1CCN(c2cc(Cl)ccc2Cl)CC1
22,756,Cc1ccc(NC(=O)Cn2c(C)nc3onc(C)c3c2=O)cc1C
23,786,CC(=O)N1CCc2cc(N3CC(C(=O)Nc4ccc(C)cc4C)CC3=O)ccc21 (stereo not given)

row,RP-LC retention time [s],SMILES
1,649,O=C(CCCS(=O)(=O)c1ccc(F)cc1)Nc1ncnc2sccc12
2,543,O=C(c1cccc(-n2cnnn2)c1)N1CCN(Cc2nc3ccccc3[nH]2)CC1
3,927,c1ccc(Cc2nn3c(CSc4ccccc4)nnc3s2)cc1
4,669,CC1CCN(c2cc(-n3cnc(C(=O)N4CCC(C(N)=O)CC4)c3)ncn2)CC1
5,597,CCCN1CCN(CCNc2nnc(-c3nc(C4CC4)no3)c3ccccc23)CC1
6,723,COc1ccccc1-c1nc2cnccn2c1NCCC(=O)Nc1cc(F)ccc1F
7,796,O=C(Cn1nc(S(=O)(=O)c2ccccc2)ccc1=O)Nc1ccc2c(c1)OCO2
8,746,Cc1ccc2nc(NC3=NCN(CCc4cccs4)CN3)nc(C)c2c1
9,1110,COc1cccc(NS(=O)(=O)c2cc(-c3cc(C(F)(F)F)on3)sc2C)c1
10,574,Cc1nc2c(n1C)CN(C(=O)c1ccc(Cl)s1)CC2
11,711,Cc1noc(C)c1CCNC(=O)C1CCN(C(=O)c2ncn3c2COC(c2ccc(F)cc2)C3)CC1 (stereo not given)
12,616,O=C1c2ccccc2C(=O)c2c1ccc(C(=O)N1CCN(c3ccccn3)CC1)c2NCCO
13,681,COc1cccc(CCC(=O)N2CCN(c3nc(CN4CCC(C)CC4)cs3)CC2)c1
14,670,COc1ccc2nc3oc(C(=O)N4CCN(Cc5ccc6c(c5)OCO6)CC4)cc3cc2c1
15,672,CCOc1ccc(-c2ccc(=O)n(CCNC(=O)c3sc(C)nc3C)n2)cc1
16,972,Cc1cccc(S(=O)(=O)N2CCCC(C)(C(=O)NCc3cccc(F)c3)C2)c1 (stereo not given)
17,729,O=C(Nc1cc(-c2cccnc2)no1)c1ccc(F)cc1
18,648,O=C(O)[C@@H]1OCC(=O)N(C2CC2)[C@H]1c1ccccc1
19,835,CC(C)CCN1C(=O)C2(NCCc3c2[nH]c2ccccc32)c2cc(Br)ccc21 (stereo not given)
20,879,COc1ccc(-c2cc3n(n2)CCCN(C(=O)CCC(=O)c2ccc(F)cc2)C3)cc1
21,807,O=C(CCc1c[nH]c2ccccc12)N1CCN(C(=O)c2cc(-c3ccncc3)n[nH]2)CC1
22,773,Cc1cccc(CNC(=O)C2CCN(S(=O)(=O)c3cn(C(C)C)cn3)CC2)c1
23,644,CSc1ccc(-c2nc3cnccn3c2Nc2ccc(C)cc2C)cc1

row,RP-LC retention time [s],SMILES
1,983,CC(C)c1ccc(-c2cc3c4nn(CC(=O)NC5CCCC5)c(=O)n4ccn3n2)cc1
2,781,Fc1ccc(OCc2nn3c(-c4cccnc4)nnc3s2)cc1
3,701,COc1ccc(NC(=O)C2CCCN(c3nnc4ccc(Cl)cn34)C2)c(OC)c1 (stereo not given)
4,724,CCCNc1c(C(=O)OC)c(=O)[nH]c2c(Cl)cccc12
5,957,CCCCn1nc2ccc(S(=O)(=O)N3CCCCCC3)cn2c1=O
6,679,CC(C)NC(=O)C1CCN(C(=O)c2ncn3c2COC(c2ccc(Cl)cc2)C3)CC1 (stereo not given)
7,1130,O=C(Cn1cccc1-c1nc(-c2ccc(Cl)cc2)cs1)N1CCCC1
8,667,COc1ccc(-c2n[nH]c3c2C(c2ccc(O)cc2)N(C)C3=O)cc1 (stereo not given)
9,855,CSc1ccccc1N1CCN(CCCCCC(=O)NC2CCCc3ccccc32)CC1 (stereo not given)
10,744,O=C(NS(=O)(=O)c1ccc(F)cc1)c1ccccc1
11,962,CCOC(=O)c1sc(NC(=O)C2CCCCN2S(=O)(=O)c2cccs2)cc1C (stereo not given)
12,720,Cc1ccc2c(Nc3cccc(C(C)C)c3)c(C(=O)N3CCCCC3C)cnc2n1 (stereo not given)
13,564,COc1ccc(Cl)cc1NC(=O)NCCN1CCN(S(C)(=O)=O)CC1
14,1300,Cc1ccc(-c2noc(CSc3nc4cc5c(cc4c(=O)n3Cc3ccccc3)OCO5)n2)cc1
15,714,CC(C)(C)C(=O)N[C@H](Cc1ccccc1)C(=O)NCc1cscn1
16,672,O=C(NC1CCCCC1)C1CCN(c2cncnc2N2CCCCC2)CC1
17,628,Cc1nnc2ccc(NC3CC3)nn12
18,731,CCc1ccccc1NC(=O)N1CCC2(CC1)NC(=O)c1ccccc1N2C
19,868,CN(CCc1noc(-c2ccc(Cl)cc2)n1)C(=O)NCc1ccco1
20,1230,CC(C)CCNS(=O)(=O)c1cccc(-c2nc(-c3ccccc3)no2)c1
21,591,Cc1oc2ncnc(N3CCCCC3)c2c1C(=O)N1CCN(c2ccccn2)CC1
22,821,Cc1ccc2c(Nc3ccccc3Cl)c(-c3nc(C)no3)cnc2n1
23,563,O=C(Cn1ncc2c(N3CCN(c4ccccn4)CC3)ncnc21)Nc1cccc(F)c1

row,RP-LC retention time [s],SMILES
1,732,O=C([C@@H]1C[C@H](F)CN1C(=O)Nc1ccc(Cl)cc1)N1CCCCC1
2,603,CC(C)(Oc1ccc(Cl)cc1)C(=O)N1CCN(CC(O)c2cccs2)CC1 (stereo not given)
3,843,CCOC(=O)C1CCN(c2nc(=O)n(CC(=O)Nc3ccc(C)cc3)c3ccccc23)CC1
4,578,O=C(N[C@@H]1CN(c2ccncn2)C[C@H]1CO)c1ccc2c(c1)OCO2
5,859,Cc1cccc(N2C(=O)CN(Cc3ccccc3)[C@H]3CS(=O)(=O)C[C@H]32)c1
6,585,Cc1ccc(C)c(C(=O)Nc2cc(-c3cccnc3)no2)c1
7,1020,COc1ccccc1-c1cc2c(=O)n(Cc3nc(-c4ccccc4OC)oc3C)ccn2n1
8,770,O=C(c1ccc2cc[nH]c2c1)N1CCC2(CC1)N=C(c1ccccc1)NO2
9,868,COc1ccc(NC(=O)c2ccccc2NC(=O)C2CCN(C(=O)C(C)(C)C)CC2)cc1
10,668,CCOC(=O)c1c(C)[nH]c(CCC(=O)NCCOC)c1C
11,827,N#CCCN(C(=O)c1noc2c1CCCC2)c1ccccc1
12,643,Nc1nc(N2CCCC2)ncc1C(=O)NCc1ccccc1F
13,735,O=C(NCc1ccc2[nH]c3c(c2c1)CCCC3)C1CC1
14,999,CC1CCN(S(=O)(=O)c2cc(-c3nnc(C4CCC4)o3)co2)CC1
15,863,COc1ccccc1C(=O)N1CCC2(CC1)N=C(c1ccc(Br)cc1)C(=O)N2
16,790,CC1CCN(C(=O)c2ccc(CN3C(=O)C4CCCN4C(=O)c4ccccc43)cc2)CC1 (stereo not given)
17,732,COc1ccc(-n2nc3c(N4CCCC(C(=O)NC5CCCCC5)C4)nnc(C)c3c2C)cc1 (stereo not given)
18,1060,COCc1cnc2c(c1SCc1ccc(C)cc1)c(=O)n(C)c(=O)n2C
19,747,COC(=O)c1cc2c(=O)n(Cc3ccco3)ccc2nc1C
20,695,O=C(c1ccoc1)N1CCC(Cc2noc(C3CC3)n2)C1 (stereo not given)

row,SMILES,RP-LC retention time [s]
1,O=C(CN1CC=C(c2cnn(-c3ccccc3)c2)CC1)N1CCN(c2ccccc2)CC1,702
